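Step 1: Grow cells in 96-well plates. Step 2: Expose to compound for 48 hours at 5 concentrations. Step 3: Interpolate endpoints linearly; if unreached, use highest concentration. GI50 = concentration required for 50% inhibition of growth. Definition used: TGI = concentration required for complete inhibition of growth.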
Legend:
Assay in all cases: NCI anticancer screen, dose series, 48 h
[1] = test system: OVCAR-8 ovarian
[2] = test system: MDA-MB-435
[3] = test system: SK-MEL-28 melanoma
[4] = test system: NCI/ADR-RES ovarian
[5] = test system: HT29 colon
[6] = test system: RPMI-8226 leukemia
[7] = test system: DU-145 prostate
[8] = test system: UACC-62 melanoma
[9] = test system: ACHN renal
[10] = test system: SNB-75 CNS

Row | Structure (SMILES) | GI50 [1] [µM] | TGI [1] [µM] | GI50 [2] [µM] | TGI [2] [µM] | GI50 [3] [µM] | TGI [3] [µM] | GI50 [4] [µM] | TGI [4] [µM] | TGI [5] [µM] | GI50 [6] [µM] | TGI [6] [µM] | GI50 [7] [µM] | TGI [7] [µM] | GI50 [8] [µM] | TGI [8] [µM] | GI50 [9] [µM] | TGI [9] [µM] | TGI [10] [µM] | GI50 [5] [µM] | GI50 [10] [µM]
1 | CCCCCCCCCCCC[C@@H](O)[C@H]1CC[C@H]([C@H](O)CC[C@H](O)[C@@H]2CC[C@@H](CCCCCCCC3=C[C@H](C)OC3=O)O2)O1 | 6.6 | > 50 | 1.49 | > 50 | 3.37 | > 50 | 2.12 | > 50 | > 50 | 2.45 | > 50 | > 50 | > 50 | > 50 | > 50 | 2.51 | > 50 | > 50 | – | –
2 | CCCCCCCCCCCCCCNC(=O)Nc1ccc(Cl)c(Cl)c1 | 3.16 | > 31.4 | 2.82 | 8.33 | 3.7 | > 100 | 3.02 | > 28.4 | > 100 | 1.24 | 3.26 | 3.59 | > 100 | 3.69 | > 100 | 3.17 | > 100 | 9.57 | 3.27 | 1.98
3 | O=C(O)CN(CCN(CC(=O)O)CC(=O)O)CC(=O)O.[Mn+2] | > 100 | > 100 | > 100 | > 100 | > 100 | > 100 | > 100 | > 100 | > 100 | > 100 | > 100 | > 100 | > 100 | > 100 | > 100 | > 100 | > 100 | > 100 | > 100 | > 100
4 | COCCOC1=C(Cl)C(=O)c2ccccc2C1=O | 3.11 | 10.7 | 3.08 | 10.4 | 3.22 | 10.9 | 2.39 | 6.7 | 25.5 | 2.31 | 6.75 | 3.1 | 10.7 | 1.89 | 5.1 | 1.88 | 3.59 | 10.1 | 7.06 | 2.75
5 | COc1ccccc1Oc1nccc(-c2c(-c3ccc(F)cc3)ncn2C2CCNCC2)n1 | > 25 | > 25 | > 24.1 | > 25 | > 24.1 | > 25 | > 25 | > 25 | > 25 | > 19.3 | > 25 | > 25 | > 25 | > 25 | > 25 | 15.4 | > 25 | > 25 | 8.72 | > 16.6
6 | C(=Nc1nc(SCc2ccccc2)nc2[nH]ncc12)c1cccs1 | 39.6 | > 100 | 41.6 | > 100 | 31.3 | > 100 | 49.6 | > 100 | > 100 | 27.6 | > 100 | 43 | > 100 | 25.4 | 61.8 | 43.6 | > 100 | > 100 | 38.2 | > 100
7 | Cc1noc(NC(=O)Nc2ccccc2F)c1C#N | – | > 100 | – | > 100 | – | > 100 | – | > 100 | > 37.7 | – | > 100 | – | > 100 | – | > 45.4 | – | > 46.7 | > 100 | – | –
8 | OCCCCC#Cc1ccccc1C#Cc1cccc(C(F)(F)F)c1 | 18.8 | 35.7 | 16.9 | 31.6 | 12 | 25 | 15.5 | 31.1 | 23.4 | 21.7 | 40.6 | 15.3 | 29.9 | 15.9 | 29.5 | 18.3 | 32.4 | 29.3 | 10.5 | 14.6
9 | N#CC(C#N)=C/C=C(\Sc1ccc(Cl)cc1)c1ccc(F)cc1 | 5.89 | 12.7 | 0.81 | 2.91 | 6.61 | 19.3 | 0.948 | 4.94 | > 51.6 | 0.0597 | 1.1 | 0.525 | > 33.6 | 2.03 | 10.3 | 1.52 | > 27.7 | 31.7 | 2.06 | 16.6
10 | NC(N)=NCCCC(NCc1c2ccccc2nc2ccccc12)C(=O)O (stereo not drawn) | – | > 86 | – | > 100 | – | > 100 | – | > 100 | > 66.4 | – | > 53.3 | – | > 100 | – | > 100 | – | > 100 | > 100 | – | –
11 | CC(=O)NC1C(O[C@H]2C[C@H]3[C@@H]4CC=C5C[C@@H](O)CC[C@]5(C)[C@H]4CC[C@]3(C)[C@H]2[C@H](C)C(=O)CCC(C)C)OCC(O)C1O (stereo partly drawn) | 15.7 | > 42.5 | 2.06 | 8.73 | 0.928 | 2.78 | 13.1 | > 42.5 | 15.3 | 0.593 | 2.06 | 5.89 | > 42.5 | 0.913 | 2.21 | 3.75 | > 42.5 | 10.9 | 5.29 | 0.909
12 | CC(C)[C@@H]1CC[C@]2(CO2)[C@@H]2C(=O)OCC(C(=O)O)=C[C@H]21 | 0.351 | > 100 | 0.355 | 6.72 | 0.207 | 0.424 | 0.431 | > 100 | > 33.9 | 0.24 | 0.635 | 0.471 | > 100 | 0.221 | 0.578 | 0.43 | > 100 | > 100 | 0.352 | 0.422
13 | CCSCC1CC(O)(c2ccccc2)C(c2ccccc2)C(c2ccc(F)cc2)O1 (stereo not drawn) | 2.64 | 8.54 | 1.98 | 5.24 | 1.74 | 3.4 | 1.89 | 6.67 | 6.21 | 1.14 | 5.95 | 2.75 | 6.99 | 1.91 | 5.5 | 2.22 | 5.54 | 3.67 | 1.95 | 1.52
